In one series the test system is S. aureus 25923. The series is described as follows: MIC, growth inhibition in vitro. In kind it is cell-based. Particulars: Table 5.
The test system of series [1] is Streptococcus faecalis 21777. The experiment in a line: MIC, growth inhibition in vitro. Format: cell-based. Particulars: Table 5.
Another series relates to S. haemolyticus 809. The series is described as follows: MIC, growth inhibition in vitro. Format: cell-based. To be noted: Table 5.
In the next series the test system is S. aureus C 31153. The series is described as follows: In vivo activity against S. aureus C 31153 infection in mice. To be noted: S. aureus C 31153 (Methicillin & Caphalexin resistant), 2 × 10^9 CFU/mouse. From the text:
(§1) In vivo activity of potassium mersacidin against S. aureus
(§2) and Streptococcus pyogenes A 77 infection in mice

Series [2] concerns Streptococcus faecalis 29212. The experiment in a line: MIC, growth inhibition in vitro. To be noted: Table 5. Format: cell-based.
Series [3] deals with Staphylococcus aureus 209P. The series is described as follows: MIC, growth inhibition in vitro. In kind it is cell-based. Particulars: Table 5. From the text:
(§3) The biological properties of mersacidin as the MIC values required for inhibition of the growth of various microorganisms are listed in Table 3.

In the next series the test system is S. aureus 710. The series is described as follows: MIC, growth inhibition in vitro. In kind it is cell-based. Particulars: Table 5.
Source text: as §3

The next series deals with S. aureus R 85. The series is described as follows: MIC, growth inhibition in vitro. In kind it is cell-based. To be noted: Table 5.
Source text: as §3

The subject of the next series is S. aureus 3066. The series is described as follows: MIC, growth inhibition in vitro. Format: cell-based. To be noted: Table 5.
Source text: as §3

The next series relates to S. aureus SG 511. The series is described as follows: In vivo activity against S. aureus SG 511 infection in mice. To be noted: S. aureus SG 511 (Methicillin sensitive), 1,75 × 10^9 CFU/mouse. As for the experimental part: On subcutaneous administration in a dose of 9.37 and 25.00 mg/kg to laboratory mice infected experimentally with Staphylococcus aureus SG 511 and S. aureus 710 (resistant to methicillin), […].
In vivo activity of mersacidin against S. aureus SG 511
infection in mice compared with vancomycin.
Inoculation medium used: 1.75 × 10^9 CFU/mouse

The test system of the next series is S. aureus E 710 (MRSA). The experiment in a line: In vivo activity against S. aureus E 710 (MRSA) in mice. To be noted: S. aureus E 710 (Methicillin resistant), 1 × 10^10 CFU/mouse. As for the experimental part: On subcutaneous administration in a dose of 9.37 and 25.00 mg/kg to laboratory mice infected experimentally with Staphylococcus aureus SG 511 and S. aureus 710 (resistant to methicillin), […]. […]

In series [4] the test system is Streptococcus pyogenes A 77. The series is described as follows: In vivo activity against Streptococcus pyogenes A 77 infection in mice. To be noted: Streptococcus pyogenes A 77, 3,8 × 10^3 CFU/mouse.
Source text: as §1, §2

Series [5] relates to Streptococcus hominis ML 22. The experiment in a line: MIC, growth inhibition in vitro. In kind it is cell-based. Particulars: Table 5.
In another series the test system is S. epidermidis 32965. The series is described as follows: MIC, growth inhibition in vitro. Format: cell-based. To be noted: Table 5.
A short description of a further series: physchem. To be noted: water. As for the experimental part:
These salts can be prepared by the treatment of mersacidin with 1.0 equivalent of the corresponding alkali metal hydroxide in the presence of pyridine. For example, mersacidin (50 mg) was dissolved in 1 ml of pyridine, the solution cooled to 0° C. and a solution of 1.683 mg of KOH in 3 ml of distilled water was added under stirring.

Another series relates to S. epidermidis 823. The series is described as follows: MIC, growth inhibition in vitro. In kind it is cell-based. Particulars: Table 5.
The subject of a further series is S. haemolyticus 712. The experiment in a line: MIC, growth inhibition in vitro. Particulars: Table 5. In kind it is cell-based.

Each structure is given as a SMILES string.

As for `C=C1NC(=O)[C@@H]2NC(=O)[C@H](CC(C)C)NC(=O)[C@H](NC(=O)[C@@H]3CS[C@@H](C)[C@@H](NC(=O)[C@H](Cc4ccccc4)NC(=O)[C@@H]4NC(=O)[C@@H](N)CS[C@H]4C)C(=O)N[C@@H](CC(C)C)C(=O)N4CCC[C@H]4C(=O)NCC(=O)NCC(=O)NCC(=O)NCC(=O)N[C@@H](C(C)C)C(=O)N3)[C@H](C)SC[C@H](NC(=O)[C@H](CCC(=O)O)NC1=O)C(=O)N[C@@H]([C@@H](C)CC)C(=O)N/C=C\S[C@H]2C` [potassium mersacidin], the MIC values in the series on S. aureus 25923 was 8 µg/mL; in series [1], 15 µg/mL; in the series on S. haemolyticus 809, 4 µg/mL; in [2] it was 15 µg/mL; in series [3] it was 2 µg/mL; in the series with S. aureus 710, 1 µg/mL. For the same compound, the MIC values in the series with S. aureus R 85 was 2 µg/mL; against S. aureus 3066, 10 µg/mL; in [5] it was 10 µg/mL; in the series on S. epidermidis 32965, 6 µg/mL; against S. epidermidis 823 it was 50 µg/mL; in the series on S. haemolyticus 712, 10 µg/mL. For the same compound, the “50% Effective Dose (ED50)” value in the series with S. aureus C 31153 is listed as 15,35 mg/kg × 3, s.c; in the series on S. aureus SG 511 it was 2,85 mg/kg × 3, s.c; with S. aureus E 710 (MRSA), 6,72 mg/kg × 3, s.c; in series [4], 0,46 mg/kg × 3, s.c. Moreover, the solubility (commonly the concentration that dissolves in the medium under given conditions) in “physchem” was ≥ 160 mg/mL.

Source of the values: US5112806A, “Antibiotic, mersacidin, a process for the preparation thereof and the use thereof as a pharmaceutical” (Hoechst Aktiengesellschaft, priority 1988, dated 1992).
